Assay results published in patent US5750332A, “Peptomers with enhanced immunogenicity” (priority 1995, dated 1998).
Where “and” joins values, the source holds several entries; their conditions need not be identical. Equal values may be shown once. Read-outs that look alike come from different tables or passages of the source. Where no end group is shown, it is not given here.

How the values were obtained:
[1] = system: binding of biotinylated CD4 to peptomer(419-436); settings: 10 μg/200 μl peptomer coated; 1 μg/well biotinylated CD4
[2] = Circular dichroism spectroscopy, degree of α-helicity; format: physicochemical; settings: for helix content: circular dichroism, analysis according to Provencher et al.
Description: Circular dichroism spectroscopy was used to determine the degree of α-helicity of the peptomer and the peptide from which it was derived. […] In this case, the peptide contains 8±7% helix, while the peptomer has 31±1%. This establishes that by polymerizing the peptide, the peptomer achieves a conformation that is not favored for the free peptide monomer.
Using circular dichroism spectroscopy as described in Example 5, above, the degree of α-helicity of the peptide (419-436) with and without detergent was determined.

[3] = system: antisera from HIV infected individuals; assay: ELISA of serum samples on plates coated with peptide or peptomer; format: binding; settings: for ELISA Titer of serum sample: 1 μg/well coated
Procedure: Standard ELISA methods were used in these experiments. Briefly, 96-well polystyrene plates were coated with 1 μg/well of peptide or peptomer. The peptide found 9/27 (33%); the peptomer found 26/27 (96%); 1/10 (10%) false positive with the peptomer.

CD4 = CD4 (Homo sapiens, UniProt P01730); assay: Binding of peptide monomer to CD4 in the presence of detergent
MN isolate of HIV1 = assay: In vitro neutralization assay with rabbit antisera; format: cell-based; settings: rabbit antibodies, Freund's adjuvant, HIV-1 MN in vitro
Procedure: HIV-1 MN isolate was neutralized at a dilution of 1:70. Neutralization assays were carried as described in Robert-Guroff, et al. in Techniques in HIV Research Aldovini and Walker eds. pp. 179-185 (Aldrich 1990).
gp120 Reactivity was in the dot blot assay. Neutralization was with an in
vitro neutralization assay using the MN isolate of HIV1.

Rhesus monkeys = assay: Immune response of Rhesus monkeys: ELISA titer against the peptomer; format: in vivo; settings: for ELISA titer 0 weeks: before peptomer immunization
Procedure: (§1) This experiment was done with Rhesus monkeys that had been primed with various attenuated poxvirus recombinant carrying HIV-1MN genes and boosted with envelope and gag proteins formulated in alum. Six monkeys were used for the studies. Two of the monkeys were immunized with peptomer(419-436) suspended in phosphate-buffered saline (PBS at pH 7.4 without adjuvant) and four were immunized with peptomer(419-436) in alum. Each animal was injected with a single 1 ml bolus containing 1 mg peptomer(419-436) in a subscapular location in order that the immunogen be administered in a lymph node-rich locus. Three weeks after the initial injection, the monkeys were injected again and the final evaluation was performed after an additional three weeks (a total of six weeks from the initial injection).
Three weeks following the initial administration of the peptomer(419-436) an ELISA titer against the peptomer of 1:3,200 was detected for the monkeys immunized with peptomer in alum.

HIV-1 (MN) = HIV-1 (MN) in vitro neutralization by sera of immunized Rhesus monkeys; format: cell-based; settings: 1 mg in PBS at 0 and 3 weeks, reciprocal serum dilution giving 40% neutralization
Procedure: as §1
The neutralization titers are given as the reciprocal of the dilution of
serum that gives a 40% neutralization of HIV1 (MN) infection in vitro. A
negative value means neutralization was not observed at the lowest serum
dilution tested (1:25). The MN isolate was used because this was the
strain used to design the peptomer.

gp120 binding to CD4 = target: T1, gp120 binding to CD4 (Homo sapiens, UniProt P01730); assay: ELISA: inhibition of gp120 binding to CD4 by peptomer; set-up: species or system HIV-1; settings: 500 ng/well recombinant soluble gp120 coated, biotinylated CD4, peptomer prepared without lyophilization
T1 construct: recombinant soluble CD4 (Genentech); purchased Genentech
Procedure: C. Inhibition of gp120 binding to CD4 by peptomer(419-436). The ELISA procedure was the same as above except that 500 ng/well of recombinant soluble gp120 was used to coat each well instead of peptomer. Poly-scrambled peptomer is a peptomer that contains all the amino acids as in peptomer(419-436) in a scrambled order.

[4] = Solubility of the peptomer; format: physicochemical
Procedure: b) Polymerization of the peptide monomers to form peptomer (419-436) The peptide polymers were prepared by dissolving 5 mg of the N-bromoacetyl cysteine-containing peptides in 1.0 ml of deoxygenated 0.5M NaHCO3 or 0.1M NaHPO4, pH 7.0-7.5 buffer and stirring these solutions under N2 for 5-12 hours at 25° C. […] They are soluble in 10% acetic acid at less than about 1mg/ml.
The peptomer used in the experiments described in this Example was prepared without a lyophilization step.

[5] = target: recombinant soluble gp120 (Human immunodeficiency virus type 1 group M subtype B, UniProt P05877); settings: rabbit antibodies, dot blot assay
Procedure: The dot blot assays were carried as follows. Peptomers in H2 O were spotted onto nitrocellulose paper. The nitrocellulose was then blocked with 3% bovine serum albumin in tris-buffered saline (TBS) pH 7.4 for 1 hour, then treated with 1 μg/ml biotinylated rsCD4 (Genentech, South San Francisco, Calif.) for 3 hours in a buffer containing TBS and 0.1% Tween 20. The nitrocellulose was then treated with a 1:750 dilution of streptavidin-horseradish peroxidase conjugate and developed.

[6] = diagnosis Hodgkins / lymphoma (control)
[7] = diagnosis Kidney Graft (control)

Q: Which “inhibition of biotinylated CD4 binding to peptomer(419-436)” value [1] does the source give for “recombinant soluble gp120: recombinant soluble HIV-1 envelope glycoprotein gp120” here?
A: inhibition

Q: What does the source list for KIKQIINMWQEVGKAMYA [Peptide 419-436]?
A: α-helix by circular dichroism ([2]; PBS with 0.03% Brij 35, shoulder at 220 λ): presence of an α-helix; helix content [2]: 8±7%; ELISA Titer of serum sample [3, 6]: 0; ELISA Titer of serum sample [3, 7]: 0; ELISA Titer of serum sample ([3]; diagnosis NORMAL (control)): 0; ELISA Titer of serum sample ([3]; diagnosis uveitis (control)): 0; HIV-1(+) serum samples found ([3]; of 27 HIV+/AIDS sera): 33%; HIV-1(+) serum samples found ([3]; positive of 27 HIV+/AIDS sera): 9/27; ability of the peptide monomer to bind CD4 (CD4): enhanced ability

Q: For “Peptomer (419-436): polymer of N-bromoacetyl cysteine-containing peptide monomers KIKQIINMWQEVGKAMYA, residues 419 to 436 of HIV-1 gp120 (also: polymerized via N-bromoacetyl cysteine, site not given here)”, which Neutralization (MN isolate of HIV1) is on record?
A: None

Q: What about the Neutralization (MN isolate of HIV1; listed as peptomer (419-436)) of the same substance?
A: not able to recognize gp120 or to neutralize HIV-1 infection in vitro

Q: And the “ELISA titer 0 weeks” value (Rhesus monkeys; Rhesus monkeys, PBS without adjuvant)?
A: 0

Q: And the “ELISA titer 0 weeks” value (Rhesus monkeys; Rhesus monkeys, alum group)?
A: 0

Q: What about the “ELISA titer against the peptomer, three weeks after initial administration” value (Rhesus monkeys; Rhesus monkeys, peptomer in PBS) of the same substance?
A: No titer was detected

Q: And the “Immunogenicity in Rhesus monkeys” value (Rhesus monkeys; monkeys previously immunized with various HIV-related immunogens including gp160/120)?
A: immunogenic

Q: And the “HIV-1 (MN) NEUTRALIZATION 6 weeks” value (HIV-1 (MN))?
A: 40 and 50

Q: And the helix content [2]?
A: 31±1%

Q: And the “ELISA Titer of serum sample” value [3, 6]?
A: 0

Q: And the “ELISA Titer of serum sample” value [3, 7]?
A: 0

Q: And the “ELISA Titer of serum sample” value ([3]; diagnosis NORMAL (control))?
A: 0

Q: What about the false positive ([3]; of 10 non-HIV sera) of the same substance?
A: 10%

Q: What about the “HIV-1(+) serum samples found” value ([3]; of 27 HIV+/AIDS sera) of the same substance?
A: 96%

Q: What about the false positive ([3]; positive of 10 non-HIV sera) of the same substance?
A: 1/10

Q: And the “HIV-1(+) serum samples found” value ([3]; positive of 27 HIV+/AIDS sera)?
A: 26/27

Q: What about the “inhibition of gp120 binding to CD4” value (gp120 binding to CD4; listed as peptomer) of the same substance?
A: enhanced ability to block binding

Q: What about the “inhibition of gp120 binding to CD4” value (gp120 binding to CD4; listed as peptomer(419-436)) of the same substance?
A: inhibition

Q: What about the “solubility in 10% acetic acid” value ([4]; 10% acetic acid) of the same substance?
A: less than 1 mg/ml

Q: What about the “solubility in buffered saline solutions” value ([4]; buffered saline solutions) of the same substance?
A: not soluble

Q: What about the “solubility in aqueous solutions” value ([4]; peptomer prepared without a lyophilization step) of the same substance?
A: increased solubility

Q: What about the solubility in water ([4]; water) of the same substance?
A: only partially soluble

Q: What about the “gp120 Reactivity” value ([5]; Freund's adjuvant) of the same substance?
A: 0

Q: What about the “gp120 Reactivity” value ([5]; Freund's adjuvant, listed as peptomer (419-436)) of the same substance?
A: not able to recognize gp120

Q: And the “gp120 Reactivity” value ([5]; Ribi's adjuvant)?
A: reacted well
